Experimental data taken from patent US20130261154A1 (priority 2010, published 2013).

Legend:
Format in all cases: in vivo
Phytophthora infestans [1] = settings: tomato seedlings; inoculated, 17 h later sprayed to run-off; visual disease rating; test concentration not given
Plasmopara viticola = test: Test A: grape downy mildew, spray after inoculation of grape seedlings; settings: inoculated, 24 h later sprayed to run-off, visual disease rating, test concentration not given
Excerpt: General protocol for preparing test suspensions for Test A-C: The test compounds were first dissolved in acetone in an amount equal to 3% of the final volume and then suspended at the desired concentration (in ppm) in acetone and purified water (50/50 mix by volume) containing 250 ppm of the surfactant Trem® 014 (polyhydric alcohol esters). The resulting test suspensions were then used in Tests A-C. Spraying a 40 ppm test suspension to the point of run-off on the test plants was equivalent to a rate of 160 g/ha.
Grape seedlings were inoculated with a spore suspension of Plasmopara viticola (the causal agent of grape downy mildew) and incubated in a saturated atmosphere at 20° C. for 24 h. After a short drying period, the test suspension was sprayed to the point of run-off on the grape seedlings, which were then moved to a growth chamber at 20° C. for 5 days, after which time the grape seedling were placed back into a saturated atmosphere at 20° C. for 24 h. Upon removal, visual disease ratings were made.
Results for Tests A-C are given in Table A. In the table, a rating of 100 indicates 100% disease control and a rating of 0 indicates no disease control (relative to the controls).

Phytophthora infestans [2] = settings: tomato seedlings; sprayed to run-off, inoculated the following day; visual disease rating; test concentration not given

Compound	Test C disease control rating (100 = 100% disease control, 0 = no disease control relative to the controls) (Phytophthora infestans [1]) [%]	Test A disease control rating (100 = 100% disease control, 0 = no disease control relative to the controls) (Plasmopara viticola) [%]	Test B disease control rating (100 = 100% disease control, 0 = no disease control relative to the controls) (Phytophthora infestans [2]) [%]
Cc1cc(C(F)(F)F)nn1CC(=O)N1CCC(c2nc(C3=NOC(CCOc4ccccc4I)C3)cs2)CC1 (stereo not drawn) [Compound 1]	91	86	99
Cc1cc(C(F)(F)F)nn1CC(=O)N1CCC(c2nc(C3=NOC(CCOc4c(F)cccc4F)C3)cs2)CC1 (stereo not drawn) [Compound 2, 1-[4-[4-[5-[2-(2,6-difluorophenoxy)ethyl]-4,5-dihydro-3-isoxazolyl]-2-thiazolyl]-1-piperidinyl]-2-[5-methyl-3-(trifluoromethyl)-1H-pyrazol-1-yl]ethanone]	99	96	100
Cc1cc(C(F)(F)F)nn1CC(=O)N1CCC(c2nc(C3=NOC(COCN4C(=O)c5ccccc5C4=O)C3)cs2)CC1 (stereo not drawn) [Compound 3, 2-[[[4,5-dihydro-3-[2-[1-[2-[5-methyl-3-(trifluoromethyl)-1H-pyrazol-1-yl]acetyl]-4-piperidinyl]-4-thiazolyl]-5-isoxazolyl]methoxy]methyl]-1H-isoindole-1,3(2H)-dione]	46	40	95
Cc1cc(C(F)(F)F)nn1CC(=O)N1CCC(c2nc(C3=NOC(CC(=O)NCc4c(F)cccc4F)C3)cs2)CC1 (stereo not drawn) [Compound 4, N-[(2,6-difluorophenyl)methyl]-4,5-dihydro-3-[2-[1-[2-[5-methyl-3-(trifluoromethyl)-1H-pyrazol-1-yl]acetyl]-4-piperidinyl]-4-thiazolyl]-5-isoxazoleacetamide]	99	24	100
Cc1cc(C(F)(F)F)nn1CC(=O)N1CCC(c2nc(C3=NOC(CCCN4C(=O)c5ccccc5C4=O)C3)cs2)CC1 (stereo not drawn) [Compound 5]	99	67	100
Cc1cc(C(F)(F)F)nn1CC(=O)N1CCC(c2nc(C3=NOC(CC(=O)Nc4c(F)cccc4F)C3)cs2)CC1 (stereo not drawn) [Compound 6]	46	0	9
Cc1cc(C(F)(F)F)nn1CC(=O)N1CCC(c2nc(C3=NOC(CCCn4c(=O)sc5ccc(Cl)cc54)C3)cs2)CC1 (stereo not drawn) [Compound 8, 5-chloro-3-[3-[4,5-dihydro-3-[2-[1-[2-[5-methyl-3-(trifluoromethyl)-1H-pyrazol-1-yl]acetyl]-4-piperidinyl]-4-thiazolyl]-5-isoxazolyl]propyl]-2(3H)-benzothiazolone]	0	0	100
Cc1cc(C(F)(F)F)nn1CC(=O)N1CCC(c2nc(C3=NOC(CCON4C(=O)c5ccccc5C4=O)C3)cs2)CC1 (stereo not drawn) [Compound 9]	73	0	99
Cc1cc(C(F)(F)F)nn1CC(=O)N1CCC(c2nc(C3=NOC(COc4c(F)cccc4F)C3)cs2)CC1 (stereo not drawn) [Compound 10]	64	0	100
Cc1cc(C(F)(F)F)nn1CC(=O)N1CCC(c2nc(C3=NOC(CCCOc4c(F)cccc4F)C3)cs2)CC1 (stereo not drawn) [Compound 11]	99	100	100
Cc1cc(C(F)(F)F)nn1CC(=O)N1CCC(c2nc(C3=NOC(CCCCOc4c(F)cccc4F)C3)cs2)CC1 (stereo not drawn) [Compound 12]	92	100	99
COc1ccc(OCCC2CC(c3csc(C4CCN(C(=O)Cn5nc(C(F)(F)F)cc5C)CC4)n3)=NO2)c(F)c1 (stereo not drawn) [Compound 13]	95	100	100
Cc1cc(C(F)(F)F)nn1CC(=O)N1CCC(c2nc(C3=NOC(CCOc4c(F)cc(C#N)cc4F)C3)cs2)CC1 (stereo not drawn) [Compound 14]	73	99	100
Cc1cc(C(F)(F)F)nn1CC(=O)N1CCC(c2nc(C3=NOC(CCOc4ccc(C#N)cc4F)C3)cs2)CC1 (stereo not drawn) [Compound 15]	99	100	100
COc1cc(F)c(OCC2CC(c3csc(C4CCN(C(=O)Cn5nc(C(F)(F)F)cc5C)CC4)n3)=NO2)c(F)c1 (stereo not drawn) [Compound 16]	99	99	100
COC(=O)c1ccc(OCCC2CC(c3csc(C4CCN(C(=O)Cn5nc(C(F)(F)F)cc5C)CC4)n3)=NO2)c(F)c1 (stereo not drawn) [Compound 17]	99	100	100
COc1cc(F)c(OCCC2CC(c3csc(C4CCN(C(=O)Cn5nc(C(F)(F)F)cc5C)CC4)n3)=NO2)c(F)c1 (stereo not drawn) [Compound 18]	17	79	71
